Measured values from US11034653B2, “Crystal form of estrogen receptor inhibitor and preparation method therefor” (LUOXIN PHARMACEUTICAL (SHANGHAI) CO., LTD., priority 2017, dated 2021).

What was measured:
[1] = Hygroscopicity study by dynamic vapor sorption (DVS); assay type: physicochemical; conditions: 25° C./80% RH
Procedure: Dynamic Vapor Sorption (DVS)
Instrument model: SMS DVS Advantage dynamic vapor sorption analyzer
Test conditions: samples (10-15 mg) were disposed in the DVS sample tray for testing.
The detailed DVS parameters were as follows:
Balance: dm/dt=0.01%/min (shortest: 10 min, longest: 180 min)
Drying: drying for 120 min at 0% RH
RH (%) test step range: 0%-90%-0%
The hygroscopicity evaluation is classified as follows:
SMS DVS Advantage dynamic vapor sorption analyzer

[2] = Solid stability test under high humidity and light irradiation conditions (XRPD, HPLC); assay type: physicochemical
Procedure: High Performance Liquid Chromatograph (HPLC)
The bottles containing samples placed under high humidity condition were sealed with aluminum foil. Small holes were made in the aluminum foil to ensure that the samples can fully contact with the ambient air. The samples were tested on the 10th day. The bottles containing samples placed under light condition were left open and the samples were exposed to a light source, and tested after being irradiated enough energy. The test results were compared with the initial test results on day 0.

[3] = Long-term crystal form stability test under high temperature and high humidity conditions (XRPD); assay type: physicochemical; conditions: 40° C., 75% RH, 10th day and 31th day
breast cancer patients = conditions: intramuscular injection; cited from earlier work
[4] = cited from earlier work

CC/C(=C(/c1ccc(/C=C/C(=O)O)cc1)c1[nH]c2ccccc2c1Cl)c1ccc(F)cc1Cl
Hygroscopicity classification [1]: almost non-hygroscopic | ΔW, weight increase caused by hygroscopy ([1]; DVS): 0.1687% | Crystal form (XRPD) ([2]; 0 day): Crystal form A | Purity (%) ([2]; 0 day): 96.99% | Related substance at relative retention time 0.97 (HPLC) ([2]; 0 day): 0.21 | Related substance at relative retention time 1.02 (HPLC) ([2]; 0 day): 0.36 | Related substance at relative retention time 1.05 (HPLC) ([2]; 0 day): 0.30 | Total content of related substances (%) ([2]; 0 day): 0.87% | Crystal form (XRPD) ([2]; High humidity (room temperature/relative humidity 92.5%, exposed), 10th day): Crystal form A | Related substance at relative retention time 0.97 (HPLC) ([2]; High humidity, 10 days): 0.22 | Related substance at relative retention time 1.02 (HPLC) ([2]; High humidity, 10 days): 0.23 | Related substance at relative retention time 1.05 (HPLC) ([2]; High humidity, 10 days): 0.31 | Total content of related substances (%) ([2]; High humidity, 10 days): 0.77% | Purity (%) ([2]; Light irradiation): 101.09% | Related substance at relative retention time 0.88 (HPLC) ([2]; Light irradiation): 0.05 | Related substance at relative retention time 0.97 (HPLC) ([2]; Light irradiation): 0.22 | Related substance at relative retention time 0.98 (HPLC) ([2]; Light irradiation): 0.17 | Related substance at relative retention time 1.02 (HPLC) ([2]; Light irradiation): 0.23 | Related substance at relative retention time 1.04 (HPLC) ([2]; Light irradiation): 0.13 | Related substance at relative retention time 1.05 (HPLC) ([2]; Light irradiation): 0.17 | Total content of related substances (%) ([2]; Light irradiation): 0.98% | Crystal form (XRPD) ([2]; Light irradiation (1ICH, exposed)): Crystal form A | Solid stability (conclusion) ([2]; high humidity and light irradiation condition): stable | Crystal form stability (conclusion) [3]: stable

C[C@]12CC[C@@H]3c4ccc(O)cc4C[C@@H](CCCCCCCCC[S+]([O-])CCCC(F)(F)C(F)(F)F)[C@H]3[C@@H]1CC[C@@H]2O (some centres unmarked) [fulvestrant]
breast cancer patients who have shown a clinical response (breast cancer patients): about 50% | oral bioavailability [4]: zero
